In publication PMC7464159, “Triple Negative Breast Cancer and Breast Epithelial Cells Differentially Reprogram Glucose and Lipid Metabolism upon Treatment with Triterpenic Acids” (Biomolecules, 2020):

Key:
[1] = system: MCF-10A cells; assay: 1H NMR metabolomics of polar (aqueous) cell extracts; assay type: cell-based, human; conditions: for number of metabolites altered: 48 h
Experimental: MDA-MB-231 and MCF-10A cells were seeded in 10-cm-diameter Petri dishes at a density of 6 × 10^5 cells/mL (10 mL per dish) and cultured for 24 h at 37 °C. […] Vehicle solvent control cells received DMSO (0.10% v/v). Samples were collected immediately after 48 h incubation or, to assess cellular recovery, medium was replaced with fresh growth medium (without TAs), and cells were incubated for additional 24 h before collection (48 + 24 h samples). Four independent assays were performed.
After incubation, culture medium was collected and centrifuged (1000× g, 5 min) and the supernatant stored at −80 °C until analysis. Culture medium without cells was placed under the same conditions and collected. Cell extraction was performed as described by Carrola et al.. Briefly, cells were washed four times with PBS and extracted with a mixture of methanol:chloroform:water (1:1:0.7). The resulting polar and organic phases were collected and then dried under vacuum or under a stream of nitrogen gas, respectively. All samples were stored at −80 °C and, at the time of analysis, dried polar extracts were reconstituted in 600 µL of deuterated phosphate buffer (100 mM, pH 7.4) containing 0.1 mM TSP-d4, while organic extracts were reconstituted in deuterated chloroform containing 0.03% TMS. Regarding medium samples, 540 μL were mixed with 60 μL of D2O containing 0.25% TSP-d4. Prior to analysis, 550 μL of each sample were transferred to 5 mm NMR tubes.
^1H NMR spectra of all samples were acquired on a Bruker Avance III HD 500 NMR spectrometer (University of Aveiro, Portuguese NMR Network) operating at 500.13 MHz for ^1H observation equipped with a 5 mm TXI probe. Standard 1D spectra (Bruker pulse programs ‘noesypr1d’, with water suppression, for medium samples and aqueous extracts, and ‘zg’ for organic extracts) were recorded with a 7002.8 Hz spectral width, 32 k data points, a 2 s relaxation delay and 512 scans. Spectral processing comprised exponential multiplication with 0.3 Hz line broadening, zero filling to 64 k data points, manual phasing, baseline correction, and chemical shift calibration to the TSP or TMS signal at 0 ppm. 2D ^1H-^1H total correlation (TOCSY) spectra, ^1H-^13C heteronuclear single quantum correlation (HSQC) spectra and J-resolved spectra were also registered for selected samples to assist spectral assignment. Metabolites were identified with the support of 2D spectra and the spectral reference databases BBIOREFCODE-2-0-0 (Bruker Biospin, Rheinstetten, Germany) and HMDB [28]. Selected signals were then integrated using the AmixViewer software […] (version 3.9.14, Bruker BioSpin, Rheinstetten, Germany) and normalized by the total spectral area. The magnitude of each metabolite change was assessed through the percentage of variation (and its respective error) in exposed samples relatively to controls, and through the effect size (ES) adjusted for small sample numbers (and respective standard error). Metabolite variations with absolute ES greater than 0.8 were expressed in a heatmap, colored as a function of the percentage of variation, employing the R statistical software.

[2] = system: MDA-MB-231 cells; set-up: method as in PMID 28213701; conditions: UA 5–20 µM; cited from earlier work

With `C[C@H]1[C@H](C)CC[C@]2(C(=O)O)CC[C@]3(C)C(=CC[C@@H]4[C@@]5(C)CC[C@H](O)C(C)(C)[C@@H]5CC[C@]43C)[C@H]12` [UA, ursolic acid] the 1-MethyInicotinamide %var ([1]; UA 10µM, 48h) was 38.46%, the 3-Hydroxyisobutyrate %var ([1]; UA 10µM, 48h) was -23.71% and the ATP %var ([1]; UA 10µM, 48h) was 41.52%. The Acetate %var ([1]; UA 10µM, 48h) was 0%, the Ala %var ([1]; UA 10µM, 48h) was 44.32% and the Asp %var ([1]; UA 10µM, 48h) was -38.30%. The Choline %var ([1]; UA 10µM, 48h) was 31.99%, the Citrate %var ([1]; UA 10µM, 48h) was -36.91% and the Cr %var ([1]; UA 10µM, 48h) was -16.76%. For the same compound, the Dimethylamine %var ([1]; UA 10µM, 48h) was -53.26%, the Formate %var ([1]; UA 10µM, 48h) was 0% and the Fumarate %var ([1]; UA 10µM, 48h) was 0%. The GPC %var ([1]; UA 10µM, 48h) was 108.51%, the GSH %var ([1]; UA 10µM, 48h) was -30.60% and the Gln %var ([1]; UA 10µM, 48h) was 0%. For the same compound, the Glu %var ([1]; UA 10µM, 48h) was -21.17%, the Glucose %var ([1]; UA 10µM, 48h) was -71.26% and the Glucose-1-phosphate %var ([1]; UA 10µM, 48h) was -75.94%. It also gave a Gly %var ([1]; UA 10µM, 48h) of 40.31%, a His %var ([1]; UA 10µM, 48h) of 0% and an Ile %var ([1]; UA 10µM, 48h) of 211.80%. For the same compound, the Lactate %var ([1]; UA 10µM, 48h) was 0%, the Leu %var ([1]; UA 10µM, 48h) was 389.84% and the NADH %var ([1]; UA 10µM, 48h) was 34.09%. For the same compound, the PC %var ([1]; UA 10µM, 48h) was -26.30%, the PCr %var ([1]; UA 10µM, 48h) was 34.32% and the Phe %var ([1]; UA 10µM, 48h) was 22.52%. It also gave a Pro %var ([1]; UA 10µM, 48h) of 87.39%, a Tyr %var ([1]; UA 10µM, 48h) of 0% and a UDP-GalNAc %var ([1]; UA 10µM, 48h) of 62.26%. It also gave a UDP-GlcNAc %var ([1]; UA 10µM, 48h) of 60.69%, a UDP-Glucose %var ([1]; UA 10µM, 48h) of -19.78% and a Val %var ([1]; UA 10µM, 48h) of 151.36%. For the same compound, the “myo -Lno %var” value ([1]; UA 10µM, 48h) was -13.14%, the 1-MethyInicotinamide %var ([1]; UA 10µM, 48h+24h) was 22.91% and the 3-Hydroxyisobutyrate %var ([1]; UA 10µM, 48h+24h) was -22.77%. It also gave an ATP %var ([1]; UA 10µM, 48h+24h) of 0%, an Acetate %var ([1]; UA 10µM, 48h+24h) of 0% and an Ala %var ([1]; UA 10µM, 48h+24h) of 0%. The Asp %var ([1]; UA 10µM, 48h+24h) was -26.58%, the Choline %var ([1]; UA 10µM, 48h+24h) was 0% and the Citrate %var ([1]; UA 10µM, 48h+24h) was -18.09%. For the same compound, the Cr %var ([1]; UA 10µM, 48h+24h) was 0%, the Dimethylamine %var ([1]; UA 10µM, 48h+24h) was -15.34% and the Formate %var ([1]; UA 10µM, 48h+24h) was 0%. It also gave a Fumarate %var ([1]; UA 10µM, 48h+24h) of -22.45%, a GPC %var ([1]; UA 10µM, 48h+24h) of -32.45% and a GSH %var ([1]; UA 10µM, 48h+24h) of -27.29%. For the same compound, the Gln %var ([1]; UA 10µM, 48h+24h) was 16.14%, the Glu %var ([1]; UA 10µM, 48h+24h) was 0% and the Glucose %var ([1]; UA 10µM, 48h+24h) was -31.96%. The Glucose-1-phosphate %var ([1]; UA 10µM, 48h+24h) was 0%, the Gly %var ([1]; UA 10µM, 48h+24h) was 24.70% and the His %var ([1]; UA 10µM, 48h+24h) was 0%. The Ile %var ([1]; UA 10µM, 48h+24h) was 58.71%, the Lactate %var ([1]; UA 10µM, 48h+24h) was 0% and the Leu %var ([1]; UA 10µM, 48h+24h) was 82.57%. For the same compound, the NADH %var ([1]; UA 10µM, 48h+24h) was 20.35%, the PC %var ([1]; UA 10µM, 48h+24h) was -38.35% and the PCr %var ([1]; UA 10µM, 48h+24h) was 24.82%. It also gave a Phe %var ([1]; UA 10µM, 48h+24h) of 16.59%, a Pro %var ([1]; UA 10µM, 48h+24h) of 49.66% and a Tyr %var ([1]; UA 10µM, 48h+24h) of 13.28%. For the same compound, the UDP-GalNAc %var ([1]; UA 10µM, 48h+24h) was 0%, the UDP-GlcNAc %var ([1]; UA 10µM, 48h+24h) was 0% and the UDP-Glucose %var ([1]; UA 10µM, 48h+24h) was 0%. For the same compound, the Val %var ([1]; UA 10µM, 48h+24h) was 47.98%, the “myo -Lno %var” value ([1]; UA 10µM, 48h+24h) was 0% and the 1-MethyInicotinamide %var ([1]; UA 20µM, 48h) was 83.24%. For the same compound, the 3-Hydroxyisobutyrate %var ([1]; UA 20µM, 48h) was -30.93%, the ATP %var ([1]; UA 20µM, 48h) was 53.13% and the Acetate %var ([1]; UA 20µM, 48h) was 0%. The Ala %var ([1]; UA 20µM, 48h) was 0%, the Asp %var ([1]; UA 20µM, 48h) was -46.10% and the Choline %var ([1]; UA 20µM, 48h) was 30.58%. For the same compound, the Citrate %var ([1]; UA 20µM, 48h) was -38.52%, the Cr %var ([1]; UA 20µM, 48h) was 0% and the Dimethylamine %var ([1]; UA 20µM, 48h) was -41.93%. For the same compound, the Formate %var ([1]; UA 20µM, 48h) was 0%, the Fumarate %var ([1]; UA 20µM, 48h) was 0% and the GPC %var ([1]; UA 20µM, 48h) was 160.13%. It also gave a GSH %var ([1]; UA 20µM, 48h) of -21.64%, a Gln %var ([1]; UA 20µM, 48h) of 0% and a Glu %var ([1]; UA 20µM, 48h) of -23.01%. For the same compound, the Glucose %var ([1]; UA 20µM, 48h) was -85.89%, the Glucose-1-phosphate %var ([1]; UA 20µM, 48h) was -78.61% and the Gly %var ([1]; UA 20µM, 48h) was 38.29%. For the same compound, the His %var ([1]; UA 20µM, 48h) was 0%, the Ile %var ([1]; UA 20µM, 48h) was 156.93% and the Lactate %var ([1]; UA 20µM, 48h) was 0%. For the same compound, the Leu %var ([1]; UA 20µM, 48h) was 297.70%, the NADH %var ([1]; UA 20µM, 48h) was 46.21% and the PCr %var ([1]; UA 20µM, 48h) was 0%. For the same compound, the Phe %var ([1]; UA 20µM, 48h) was 0%, the Pro %var ([1]; UA 20µM, 48h) was 69.18% and the Tyr %var ([1]; UA 20µM, 48h) was 0%. It also gave a UDP-GalNAc %var ([1]; UA 20µM, 48h) of 68.87%, a UDP-GlcNAc %var ([1]; UA 20µM, 48h) of 61.45% and a UDP-Glucose %var ([1]; UA 20µM, 48h) of -32.23%. The Val %var ([1]; UA 20µM, 48h) was 101.22%, the “myo -Lno %var” value ([1]; UA 20µM, 48h) was 0% and the 1-MethyInicotinamide %var ([1]; UA 20µM, 48h+24h) was 50.44%. The 3-Hydroxyisobutyrate %var ([1]; UA 20µM, 48h+24h) was -30.69%, the ATP %var ([1]; UA 20µM, 48h+24h) was 0% and the Acetate %var ([1]; UA 20µM, 48h+24h) was 10.61%. For the same compound, the Ala %var ([1]; UA 20µM, 48h+24h) was 0%, the Asp %var ([1]; UA 20µM, 48h+24h) was -37.26% and the Choline %var ([1]; UA 20µM, 48h+24h) was 0%. It also gave a Citrate %var ([1]; UA 20µM, 48h+24h) of -32.19%, a Cr %var ([1]; UA 20µM, 48h+24h) of 28.29% and a Dimethylamine %var ([1]; UA 20µM, 48h+24h) of -23.93%. The Formate %var ([1]; UA 20µM, 48h+24h) was 0%, the Fumarate %var ([1]; UA 20µM, 48h+24h) was -34.69% and the GPC %var ([1]; UA 20µM, 48h+24h) was 0%. It also gave a GSH %var ([1]; UA 20µM, 48h+24h) of -26.66%, a Gln %var ([1]; UA 20µM, 48h+24h) of 25.50% and a Glu %var ([1]; UA 20µM, 48h+24h) of -11.32%. For the same compound, the Glucose %var ([1]; UA 20µM, 48h+24h) was -67.35%, the Glucose-1-phosphate %var ([1]; UA 20µM, 48h+24h) was -40.85% and the Gly %var ([1]; UA 20µM, 48h+24h) was 31.50%. The His %var ([1]; UA 20µM, 48h+24h) was 0%, the Ile %var ([1]; UA 20µM, 48h+24h) was 94.71% and the Lactate %var ([1]; UA 20µM, 48h+24h) was 0%. For the same compound, the Leu %var ([1]; UA 20µM, 48h+24h) was 130.47%, the NADH %var ([1]; UA 20µM, 48h+24h) was 55.81% and the PC %var ([1]; UA 20µM, 48h+24h) was -38.16%. It also gave a PCr %var ([1]; UA 20µM, 48h+24h) of 0%, a Phe %var ([1]; UA 20µM, 48h+24h) of 27.29% and a Pro %var ([1]; UA 20µM, 48h+24h) of 78.81%. It also gave a Tyr %var ([1]; UA 20µM, 48h+24h) of 21.23%, a UDP-GalNAc %var ([1]; UA 20µM, 48h+24h) of 0% and a UDP-GlcNAc %var ([1]; UA 20µM, 48h+24h) of 0%. For the same compound, the UDP-Glucose %var ([1]; UA 20µM, 48h+24h) was -20.07%, the Val %var ([1]; UA 20µM, 48h+24h) was 70.45% and the “myo -Lno %var” value ([1]; UA 20µM, 48h+24h) was 0%. The “number of metabolites altered” value ([1]; UA high concentration) was 22, the “number of metabolites altered” value ([1]; UA low concentration) was 27 and the “expression of glycolytic enzymes (HK2 and PKM2) and ATP content” value [2] was “decreased”.
